Columns and labels:
salmonid fishes = conditions: cited from earlier work
[1] = tested on: enzymes from salmon intestines; test: hydrolysis of astaxanthin omega-3 fatty acid diester by enzyme mixture from salmon intestines, optical isomer distribution by HPLC of dicamphanates; format: in vitro ADME, Salmo salar
Method: As described in Example 1 below, hydrolysis experiments were performed with a diester of synthetic astaxanthin with omega-3 fatty acids and a crude enzyme preparation from salmon intestines in the same way as described before (NO-309386). The reaction products were analysed with regard to stereoisomer composition.
A diester of astaxanthin was prepared by conventional chemical synthesis from commercially obtained synthetic astaxanthin and an omega-3 fatty acid concentrate containing more than 90% omega-3 fatty acids, mainly EPA (eicosapentaenoic acid) and DHA (docosahexaenoic acid). The astaxanthin used had been prepared by chemical synthesis, and the distribution of the optical isomers (3R,3′R), meso and (3S,3′S) was 25.9:50.2:23.9, respectively, determined as described for the diol fraction.
The starting astaxanthin diester was treated with a freshly prepared enzyme mixture from the intestines of recently fed salmon (Salmo salar) for 48 hours. The pigment was then separated into three fractions by preparative thin-layer chromatography; a diol fraction with both hydroxyl groups hydrolysed, a monoester fraction with one hydroxyl group hydrolysed, and a remaining diester fraction. The astaxanthin in the diol fraction was converted into the corresponding diesters of (−)-camphanic acid by reaction with (−)-camphanoyl chloride, and the distribution of astaxanthin optical isomers were determined by high-performance liquid chromatography (HPLC) of the dicamphanates. The astaxanthin in the monoester fraction was first converted to diol in a hydrolysis reaction catalysed by the enzyme cholesterol esterase and subsequently treated with (−)-camphanic acid and analysed as described above. Attempts to convert the astaxanthin in the remaining diester fraction to diol using cholesterol esterase were not successful, as complete conversion was not obtained. The distribution of optical isomers of astaxanthin in the remaining diester fraction was therefore not determined.

[2] = pigment fraction, enzyme treatment 48 hours, starting diester = before treatment

Structure (SMILES): CCCCCCCCCCCCCCCC(=O)O[C@H]1CC(C)(C)C(/C=C/C(C)=C/C=C/C(C)=C/C=C/C=C(C)/C=C/C=C(C)/C=C/C2=C(C)C(=O)[C@@H](OC(=O)CCCCCCCCCCCCCCC)CC2(C)C)=C(C)C1=O [dipalmitate, of (3R,3′R)-astaxanthin]
- utilisation by salmonids (salmonid fishes; diet containing the ester form, compared with dipalmitate of (3S,3′S)-astaxanthin): better than dipalmitate of (3S,3′S)-astaxanthin

Structure (SMILES): CC1=C(/C=C/C(C)=C/C=C/C(C)=C/C=C/C=C(C)/C=C/C=C(C)/C=C/C2=C(C)C(=O)[C@@H](O)CC2(C)C)C(C)(C)C[C@H](O)C1=O [Diol (after enzyme treatment)]
- predominant optical isomer of astaxanthin in the fraction (in words) ([1]; after enzyme treatment): almost exclusively the (3R,3′R)-configuration, with traces of the meso-form
- distribution of astaxanthin optical isomers: (3R,3′R) [1, 2]: 94.6
- distribution of astaxanthin optical isomers: meso [1, 2]: 5.4

Structure (SMILES): CC1=C(/C=C/C(C)=C/C=C/C(C)=C/C=C/C=C(C)/C=C/C=C(C)/C=C/C2=C(C)C(=O)[C@@H](O)CC2(C)C)C(C)(C)C[C@H](O)C1=O [astaxanthin]
- absorption and deposition in the flesh of the optical isomers (salmonid fishes; in vivo): equally well absorbed and deposited

Source: patent US20050014824A1, “Pigment” (priority 2001, published 2005)
